The record followed here is patent publication US20060122179A1, “Methods and compositions using JNK inhibitors for treatment and management of central nervous system injury” (priority 2004, published 2006).

In data set [1] the test system is rat ventral mesencephalan dopaminergic neurons. The data set can be described thus: [3H]Dopamine cell culture assay (6-OHDA neurotoxicity). Format: cell-based. To be noted: 6-OHDA 30 μM, uptake 22 hrs after exposure. As to the method:
Cultures of dopaminergic neurons were prepared according to a modification of the procedure described by Raymon and Leslie (J. Neurochem. 62:1015-1024, 1994). Time-mated pregnant rats were sacrificed on embyronic day 14-15 (crown rump length 11-12 mm) and the embryos removed by cesarean section. The ventral mesencephalon, containing the dopaminergic neurons, was dissected from each embryo. Tissue pieces from approximately 48 embryos were pooled and dissociated both enzymatically and mechanically. An aliquot from the resulting cell suspension was counted and the cells were plated in high glucose DMEM/F12 culture medium with 10% fetal bovine serum at a density of 1×10^5 cells/well of a Biocoat poly-D-lysine-coated 96-well plate. The day following plating was considered 1 day in vitro (DIV). Cells were maintained in a stable environment at 37° C., 95% humidity, and 5% CO2. A partial medium change was performed at 3 DIV. […]
[^3H]Dopamine uptake is used as a measure of the health and integrity of dopaminergic neurons in culture (Prochiantz et al., PNAS 76: 5387-5391, 1979). […] Briefly, cells treated with 6-OHDA in the presence and absence of 5-amino-anthra(9,1-cd)isothiazol-6-one were assessed in the uptake assay 22 hrs after exposure to 6-OHDA. […] Radioactivity was removed and the cultures were washed 3× with ice cold PBS. […]

A short description of data set [2]: Brain-blood plasma distribution in vivo. To be noted: rat, 10 mg/kg intravenously, 2 hr post-dose. Further details: species or system Sprague-Dawley rats. As to the method:
5-Amino-anthra(9,1-cd)isothiazol-6-one was administered intravenously (10 mg/kg) into the veins of Sprague-Dawley rats. After 2 hr, blood samples were obtained from the animals and their vascular systems were perfused with approximately 100 mL of saline to rid their brains of blood. The brains were removed from the animals, weighed, and homogenized in a 50 mL conical tube containing 10 equivalents (w/v) of methanol/saline (1:1) using a Tissue Tearer (Fischer Scientific). The homogenized material was extracted by adding 600 μL of cold methanol to 250 μL of brain homogenate vortexed for 30 sec and subjected to centrifugation for 5 min. After centrifugation, 600 μL of the resulting supernatant was transferred to a clean tube and evaporated at room temperature under reduced pressure to provide a pellet. […] The brain homogenate analysis samples, plasma analysis samples, and standard analysis samples were analyzed and compared using HPLC by injecting 100 μL of a sample onto a 5 μm C-18 Luna column (4.6 mm×150 mm, commercially available from Phenomenex of Torrance, Calif.) and eluting at 1 mL/min with a linear gradient of 30% aqueous acetonitrile containing 0.1% trifluoroacetic acid to 90% aqueous acetonitrile containing 0.1% trifluoroacetic acid over 8 minutes and holding at 90% aqueous acetonitrile containing 0.1% trifluoroacetic acid for 3 min. with absorbance detection at 450 nm. […]

The nature of data set [3]: Solubility in aqueous media (remark). Format: physicochemical.

As for `Nc1ccc2snc3c2c1C(=O)c1ccccc1-3` [5-amino-anthra(9,1-cd)isothiazol-6-one], the “protection of dopaminergic neurons from 6-OHDA ([3H]dopamine uptake)” value in data set [1] is recorded as “protects rat ventral mesencephalan neurons from the toxic effects of 6-OHDA”. Further, the brain-drug concentration result in data set [2] was “approximately 65 nmole/g”. The “solubility in aqueous media” value in data set [3] is given as “limited solubility”.
